As a reminder, the IC50 is the concentration at which inhibition is half-maximal. Lower therefore signals inhibition by little substance.

Each structure is given as a SMILES string.

The assay deals with human Cereblon WT GST-tagged protein (Homo sapiens (Human), UniProt Q96SW2). The assay is described as follows: CRBN-binding affinity, HTRF (CEREBLON BINDING kit). The gist of the method: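 HTRF competition readout: compounds compete with a thalidomide-Re conjugate for GST-tagged wild-type human CRBN detected via Eu-labelled anti-GST antibody. Inhibition rate derived relative to protein-free blank wells.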
human Cereblon WT GST-tagged protein, sequence (Q96SW2 whole entry): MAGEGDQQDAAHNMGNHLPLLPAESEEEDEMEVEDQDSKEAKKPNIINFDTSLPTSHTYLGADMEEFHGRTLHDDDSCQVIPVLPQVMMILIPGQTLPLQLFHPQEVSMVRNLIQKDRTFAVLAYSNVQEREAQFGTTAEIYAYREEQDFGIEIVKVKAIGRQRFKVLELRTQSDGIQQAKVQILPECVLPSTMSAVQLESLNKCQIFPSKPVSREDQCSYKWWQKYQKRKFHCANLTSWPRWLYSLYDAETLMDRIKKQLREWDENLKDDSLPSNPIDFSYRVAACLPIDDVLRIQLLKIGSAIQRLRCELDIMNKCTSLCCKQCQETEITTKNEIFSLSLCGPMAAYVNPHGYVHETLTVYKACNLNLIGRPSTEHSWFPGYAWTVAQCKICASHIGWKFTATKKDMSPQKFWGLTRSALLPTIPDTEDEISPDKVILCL
Compound `O=C1CCC(N2Cc3cc(C(O)C4(O)CN(C(=O)c5ccccc5-c5ccc(Cl)cc5)C4)ccc3C2=O)C(=O)N1` (stereo not shown) [GT-05484, 3-(5-((1-(4′-chloro-[1,1′-biphenyl]-2-carbonyl)-3-hydroxyazetidin-3-yl)(hydroxy)methyl)-1-oxoisoindolin-2-yl)piperidine-2,6-dione] had an IC50 of 360 nM.

As for `CC1(C)CCC(CN2CC3CCC2CN3Cc2ccc3c(c2)C(=O)N(C2CCC(=O)NC2=O)C3)=C(c2ccc(Cl)cc2)C1` (stereo not shown) [GT-05485, 3-(6-((5-((4′-chloro-5,5-dimethyl-3,4,5,6-tetrahydro-[1,1′-biphenyl]-2-yl)methyl)-2,5-diazabicyclo[2.2.2]octan-2-yl)methyl)-1-oxoisoindolin-2-yl)piperidine-2,6-dione], the IC50 was found to be 740 nM. Then `O=C1CCC(N2Cc3c(C(=O)N4CCN(Cc5ccccc5-c5ccc(Cl)cc5)CC4)cccc3C2=O)C(=O)N1` (stereo not shown) [GT-05486, 3-(4-(4-((4′-chloro-[1,1′-biphenyl]-2-yl)methyl)piperazine-1-carbonyl)-1-oxoisoindolin-2-yl)piperidine-2,6-dione], with 1560 nM; and `CC1(C)CCC(C(=O)N2CCC(Cc3ccc4c(c3)CN(C3CCC(=O)NC3=O)C4=O)CC2)=C(c2ccc(F)cc2)C1` (stereo not shown) [GT-05487, 3-(5-((1-(4′-fluoro-5,5-dimethyl-3,4,5,6-tetrahydro-[1,1′-biphenyl]-2-carbonyl)piperidin-4-yl)methyl)-1-oxoisoindolin-2-yl)piperidine-2,6-dione], with 650 nM; and `CC1(C)CCC(C(=O)N2CC(Cc3ccc4c(c3)CN(C3CCC(=O)NC3=O)C4=O)C2)=C(c2ccc(F)cc2)C1` (stereo not shown) [GT-05488, 3-(5-((1-(4′-fluoro-5,5-dimethyl-3,4,5,6-tetrahydro-[1,1′-biphenyl]-2-carbonyl)azetidin-3-yl)methyl)-1-oxoisoindolin-2-yl)piperidine-2,6-dione], with 600 nM.

`CC1(C)CCC(C(=O)N2CC(=Cc3ccc4c(c3)CN(C3CCC(=O)NC3=O)C4=O)C2)=C(c2ccc(F)cc2)C1` (stereo not shown) [GT-05489, 3-(5-((1-(4′-fluoro-5,5-dimethyl-3,4,5,6-tetrahydro-[1,1′-biphenyl]-2-carbonyl)azetidin-3-ylidene)methyl)-1-oxoisoindolin-2-yl)piperidine-2,6-dione] registered an IC50 of 610 nM. Then `CC1(C)CCC(C(=O)N2C3CCC2CN(c2ccc4c(c2)CN(C2CCC(=O)NC2=O)C4=O)C3)=C(c2ccc(F)cc2)C1` (stereo not shown) [GT-05491, 3-(5-(8-(4′-fluoro-5,5-dimethyl-3,4,5,6-tetrahydro-[1,1′-biphenyl]-2-carbonyl)-3,8-diazabicyclo[3.2.1]octan-3-yl)-1-oxoisoindolin-2-yl)piperidine-2,6-dione], with 970 nM; and `CC1(C)CCC(C(=O)N2CC3CCC(C2)N3c2ccc3c(c2)CN(C2CCC(=O)NC2=O)C3=O)=C(c2ccc(F)cc2)C1` (stereo not shown) [GT-05492, 3-(5-(3-(4′-fluoro-5,5-dimethyl-3,4,5,6-tetrahydro-[1,1′-biphenyl]-2-carbonyl)-3,8-diazabicyclo[3.2.1]octan-8-yl)-1-oxoisoindolin-2-yl)piperidine-2,6-dione], with 830 nM. Next, `CC1(C)CCC(CN2CC(Cc3ccc4c(c3)CN(C3CCC(=O)NC3=O)C4=O)C2)=C(c2ccc(F)cc2)C1` (stereo not shown) [GT-05493, 3-(5-((1-((4′-fluoro-5,5-dimethyl-3,4,5,6-tetrahydro-[1,1′-biphenyl]-2-yl)methyl)azetidin-3-yl)methyl)-1-oxoisoindolin-2-yl)piperidine-2,6-dione]: 760 nM; `CC1(C)CCC(CN2CC3CCC(C2)N3c2ccc3c(c2)CN(C2CCC(=O)NC2=O)C3=O)=C(c2ccc(F)cc2)C1` (stereo not shown) [GT-05498, 3-(5-(3-((4′-fluoro-5,5-dimethyl-3,4,5,6-tetrahydro-[1,1′-biphenyl]-2-yl)methyl)-3,8-diazabicyclo[3.2.1]octan-8-yl)-1-oxoisoindolin-2-yl)piperidine-2,6-dione]: 1520 nM; `CC1(C)CCC(CN2CC(O)(C(O)c3ccc4c(c3)CN(C3CCC(=O)NC3=O)C4=O)C2)=C(c2ccc(F)cc2)C1` (stereo not shown) [GT-05499, 3-(5-((1-((4′-fluoro-5,5-dimethyl-3,4,5,6-tetrahydro-[1,1′-biphenyl]-2-yl)methyl)-3-hydroxyazetidin-3-yl)(hydroxy)methyl)-1-oxoisoindolin-2-yl)piperidine-2,6-dione]: 670 nM. Next, `CC1(C)CCC(CN2C3CCC2CN(c2ccc4c(c2)CN(C2CCC(=O)NC2=O)C4=O)C3)=C(c2ccc(F)cc2)C1` (stereo not shown) [GT-05500, 3-(5-(8-((4′-fluoro-5,5-dimethyl-3,4,5,6-tetrahydro-[1,1′-biphenyl]-2-yl)methyl)-3,8-diazabicyclo[3.2.1]octan-3-yl)-1-oxoisoindolin-2-yl)piperidine-2,6-dione]: 1870 nM; `CC1(C)CCC(CN2CCCN(C(=O)c3ccc4c(c3)CN(C3CCC(=O)NC3=O)C4=O)CC2)=C(c2ccc(F)cc2)C1` (stereo not shown) [GT-05505, 3-(5-(4-((4′-fluoro-5,5-dimethyl-3,4,5,6-tetrahydro-[1,1′-biphenyl]-2-yl)methyl)-1,4-diazepane-1-carbonyl)-1-oxoisoindolin-2-yl)piperidine-2,6-dione]: 810 nM; `CC1(C)CCC(CN2CCC3(CC2)CN(Cc2ccc4c(c2)CN(C2CCC(=O)NC2=O)C4=O)C3)=C(c2ccc(F)cc2)C1` (stereo not shown) [GT-05506, 3-(5-((7-((4′-fluoro-5,5-dimethyl-3,4,5,6-tetrahydro-[1,1′-biphenyl]-2-yl)methyl)-2,7-diazaspiro[3.5]nonan-2-yl)methyl)-1-oxoisoindolin-2-yl)piperidine-2,6-dione]: 540 nM. `CC1(C)CCC(CN2CCC3(CC2)CN(C(=O)c2ccc4c(c2)CN(C2CCC(=O)NC2=O)C4=O)C3)=C(c2ccc(F)cc2)C1` (stereo not shown) [GT-05507, 3-(5-(7-((4′-fluoro-5,5-dimethyl-3,4,5,6-tetrahydro-[1,1′-biphenyl]-2-yl)methyl)-2,7-diazaspiro[3.5]nonane-2-carbonyl)-1-oxoisoindolin-2-yl)piperidine-2,6-dione] had an IC50 of 1240 nM. Then `CC1(C)CCC(CN2CC3(C2)CN(C(=O)c2ccc4c(c2)CN(C2CCC(=O)NC2=O)C4=O)C3)=C(c2ccc(F)cc2)C1` (stereo not shown) [GT-05508, 3-(5-(6-((4′-fluoro-5,5-dimethyl-3,4,5,6-tetrahydro-[1,1′-biphenyl]-2-yl)methyl)-2,6-diazaspiro[3.3]heptane-2-carbonyl)-1-oxoisoindolin-2-yl)piperidine-2,6-dione], with 720 nM; and `CC1(C)CCC(CN2C3CC2CN(Cc2ccc4c(c2)CN(C2CCC(=O)NC2=O)C4=O)C3)=C(c2ccc(F)cc2)C1` (stereo not shown) [GT-05509, 3-(5-((6-((4′-fluoro-5,5-dimethyl-3,4,5,6-tetrahydro-[1,1′-biphenyl]-2-yl)methyl)-3,6-diazabicyclo[3.1.1]heptan-3-yl)methyl)-1-oxoisoindolin-2-yl)piperidine-2,6-dione], with 250 nM; and `CC1(C)CCC(CN2C3CCC2CN(Cc2ccc4c(c2)CN(C2CCC(=O)NC2=O)C4=O)C3)=C(c2ccc(F)cc2)C1` (stereo not shown) [GT-05510, 3-(5-((8-((4′-fluoro-5,5-dimethyl-3,4,5,6-tetrahydro-[1,1′-biphenyl]-2-yl)methyl)-3,8-diazabicyclo[3.2.1]octan-3-yl)methyl)-1-oxoisoindolin-2-yl)piperidine-2,6-dione], with 1220 nM. Next, `CC1(C)CCC(CN2C3CCC2CN(C(=O)c2ccc4c(c2)CN(C2CCC(=O)NC2=O)C4=O)C3)=C(c2ccc(F)cc2)C1` (stereo not shown) [GT-05511, 3-(5-(8-((4′-fluoro-5,5-dimethyl-3,4,5,6-tetrahydro-[1,1′-biphenyl]-2-yl)methyl)-3,8-diazabicyclo[3.2.1]octane-3-carbonyl)-1-oxoisoindolin-2-yl)piperidine-2,6-dione]: 1950 nM. For `CC1(C)CCC(C(=O)N2CC3CC(C2)N3Cc2ccc3c(c2)CN(C2CCC(=O)NC2=O)C3=O)=C(c2ccc(F)cc2)C1` (stereo not shown) [GT-05514, 3-(5-((3-(4′-fluoro-5,5-dimethyl-3,4,5,6-tetrahydro-[1,1′-biphenyl]-2-carbonyl)-3,6-diazabicyclo[3.1.1]heptan-6-yl)methyl)-1-oxoisoindolin-2-yl)piperidine-2,6-dione], the IC50 turned out to be 740 nM. In the case of `CC1(C)CCC(C(=O)N2CC3CCC(C2)N3Cc2ccc3c(c2)CN(C2CCC(=O)NC2=O)C3=O)=C(c2ccc(F)cc2)C1` (stereo not shown) [GT-05516, 3-(5-((3-(4′-fluoro-5,5-dimethyl-3,4,5,6-tetrahydro-[1,1′-biphenyl]-2-carbonyl)-3,8-diazabicyclo[3.2.1]octan-8-yl)methyl)-1-oxoisoindolin-2-yl)piperidine-2,6-dione], the IC50 was 600 nM.

`CC1(C)CCC(C(=O)N2C3CCC2CN(Cc2ccc4c(c2)CN(C2CCC(=O)NC2=O)C4=O)C3)=C(c2ccc(F)cc2)C1` (stereo not shown) [GT-05517, 3-(5-((8-(4′-fluoro-5,5-dimethyl-3,4,5,6-tetrahydro-[1,1′-biphenyl]-2-carbonyl)-3,8-diazabicyclo[3.2.1]octan-3-yl)methyl)-1-oxoisoindolin-2-yl)piperidine-2,6-dione] showed an IC50 of 600 nM.

In turn, `CC1(C)CCC(C(=O)N2CCN(Cc3ccc4c(c3)CN(C3CCC(=O)NC3=O)C4=O)CC2)=C(c2ccc(F)cc2)C1` (stereo not shown) [GT-05520, 3-(5-((4-(4′-fluoro-5,5-dimethyl-3,4,5,6-tetrahydro-[1,1′-biphenyl]-2-carbonyl)piperazin-1-yl)methyl)-1-oxoisoindolin-2-yl)piperidine-2,6-dione] registered an IC50 of 350 nM. `CC1(C)CCC(C(=O)N2CC3CC(C2)N3Cc2ccc3c(c2)CN(C2CCC(=O)NC2=O)C3=O)=C(c2ccc(Cl)cc2)C1` (stereo not shown) [GT-05521, 3-(5-((3-(4′-chloro-5,5-dimethyl-3,4,5,6-tetrahydro-[1,1′-biphenyl]-2-carbonyl)-3,6-diazabicyclo[3.1.1]heptan-6-yl)methyl)-1-oxoisoindolin-2-yl)piperidine-2,6-dione] displayed an IC50 of 620 nM. Then `CC1(C)CCC(C(=O)N2CC3CCC(C2)N3Cc2ccc3c(c2)CN(C2CCC(=O)NC2=O)C3=O)=C(c2ccc(Cl)cc2)C1` (stereo not shown) [GT-05522, 3-(5-((3-(4′-chloro-5,5-dimethyl-3,4,5,6-tetrahydro-[1,1′-biphenyl]-2-carbonyl)-3,8-diazabicyclo[3.2.1]octan-8-yl)methyl)-1-oxoisoindolin-2-yl)piperidine-2,6-dione], with 480 nM.

The values above are taken from US20260028326A1, “COMPOUND BASED ON ISOINDOLINE-SUBSTITUTED GLUTARIMIDE BACKBONE AND USE THEREOF” (GLUETACS THERAPEUTICS (SHANGHAI) CO., LTD., priority 2022, published 2026).
